This is an account of results in ChEMBL document CHEMBL3112524, “Rigid spiroethers targeting the decoding center of the bacterial ribosome” (Bioorg Med Chem, 2014).

Each structure is given as a SMILES string. Values after ≈ are worked out from the molar mass of the structure shown. Active and inactive are the calls of the source. No cut-off for these calls is given here.

For one assay, the target named is Bacterial 70S ribosome. Kind of assay: Binding affinity to Escherichia coli ribosome assessed as inhibition of transcription-translation activity preincubated for 30 mins followed by substrate addition measured after 5 mins by luciferase assay.
Assay [1] can be described thus: Binding affinity to 2AP-labelled duplex RNA (unknown origin) by fluorescence spectrophotometric analysis.
Assay [2] relates to Escherichia coli. The experiment in a line: Antibacterial activity against kanamycin-resistant Escherichia coli K-12 JW 0451-2 harboring acrB747 deletion mutant assessed as growth inhibition after 18 hrs by geometric microdilution method. The format is functional. Particulars: K-12 JW 0451-2, 18 h.
Assay [3] concerns Escherichia coli. The experiment in a line: Antibacterial activity against kanamycin-resistant Escherichia coli K-12 JW 3596-1 harboring rfaC733 deletion mutant assessed as growth inhibition after 18 hrs by geometric microdilution method. The format is functional. As to conditions: K-12 JW 3596-1, 18 h. A general note: Broth dilution looks for growth in wells or tubes with falling amounts of substance.

For assay [4], the system named is Escherichia coli. The experiment in a line: Antibacterial activity against kanamycin-resistant Escherichia coli K-12 JW 5503-1 harboring tolc732 deletion mutant assessed as growth inhibition after 18 hrs by geometric microdilution method. The class given is functional. As to conditions: K-12 JW 5503-1, 18 h.
In assay [5] the test system is Escherichia coli. Kind of assay: Antibacterial activity against Escherichia coli ATCC 25922 assessed as growth inhibition after 18 hrs by geometric microdilution method. The class given is functional.
For a further assay, the system named is Pseudomonas aeruginosa. The experiment in a line: Antibacterial activity against Pseudomonas aeruginosa ATCC 27853 assessed as growth inhibition after 18 hrs by geometric microdilution method. The format is functional.
The next assay concerns Staphylococcus aureus. The experiment in a line: Antibacterial activity against Staphylococcus aureus ATCC 29213 assessed as growth inhibition after 18 hrs by geometric microdilution method. The format is functional.

For orientation: IC50 means the concentration that gives 50% inhibition. What is called EC50 is the midpoint of the concentration-response curve. A high value points to weaker potency. In the case of `NCC[C@H](O)C(=O)N[C@@H]1C[C@H](N)[C@@]2(C[C@H](O)[C@H](O)CO2)[C@H](O)[C@H]1O`, on Bacterial 70S ribosome, the half-inhibitory concentration (IC50) was greater than 600 µM. For the same compound, it took 12600 nM to reach a half-maximal effect in assay [1] (EC50).
The term MIC denotes the lowest concentration that inhibits growth of the organism. With `N[C@H](CN[C@@H]1C[C@H](N)[C@@]2(CC[C@H](O)[C@H](O)CO2)[C@H](O)[C@H]1O)Cc1ccc(O)cc1`, the figures for the MIC in the assay on Escherichia coli [2], in the assay on Escherichia coli [3] and in the assay on Escherichia coli [4] were 129 µg/mL (≈ 313 µM), greater than 129 µg/mL and greater than 129 µg/mL, respectively. For the same compound, the MIC entry in the assay with Escherichia coli [5], with Pseudomonas aeruginosa and in the assay on Staphylococcus aureus was “inactive” each time. Moreover, on Bacterial 70S ribosome, the concentration for half-maximal inhibition (IC50) was greater than 600 µM.
Regarding `NCCCC[C@H](N)C(=O)N[C@@H]1C[C@H](N)[C@@]2(CC[C@@H](O)[C@@H](O)CO2)[C@H](O)[C@H]1O`, at Bacterial 70S ribosome, the IC50 is greater than 600 µM. The compound also returned an EC50 in assay [1] of 1200 nM.
Consider `NCCCC[C@H](N)C(=O)N[C@@H]1C[C@H](N)[C@@]2(CC[C@H](O)[C@H](O)CO2)[C@H](O)[C@H]1O`, for which the EC50 in assay [1] is 12000 nM.
In the case of `N[C@@H](Cc1ccc(O)cc1)C(=O)N[C@@H]1C[C@H](N)[C@@]2(CC[C@@H](O)[C@@H](O)CO2)[C@H](O)[C@H]1O`, the IC50 on Bacterial 70S ribosome is greater than 600 µM.
Turning to `NCCCC[C@H](N)C(=O)N[C@@H]1C[C@H](N)[C@@]2(C[C@H](O)[C@H](O)CO2)[C@H](O)[C@H]1O`, the 50% inhibitory concentration (IC50) on Bacterial 70S ribosome worked out at 350 µM. The compound further came in with a concentration giving a half-maximal response (EC50) in assay [1] of 890 nM.
For `NCCCC[C@H](N)C(=O)NC[C@@H]1CC[C@@]2(O1)[C@H](O)[C@@H](O)[C@H](N)C[C@@H]2N`, the MIC in the assay on Escherichia coli [2] was greater than 112 µg/mL; in the assay on Escherichia coli [3] it was 112 µg/mL (≈ 312 µM); with Escherichia coli [4], greater than 112 µg/mL; with Escherichia coli [5] (ATCC 25922, 18 h), greater than 112 µg/mL; in the assay with Pseudomonas aeruginosa (ATCC 27853, 18 h), greater than 112 µg/mL; in the assay on Staphylococcus aureus (ATCC 29213, 18 h), 7.2 µg/mL (≈ 20 µM). Further, at Bacterial 70S ribosome, the half-maximal inhibitory concentration (IC50) was determined as 325 µM. This compound also came in with an EC50 in assay [1] of 1400 nM.
With `N[C@@H]1C[C@H](N)[C@@]2(C[C@H](O)[C@H](O)CO2)[C@H](O)[C@H]1O`, the EC50 in assay [1] was 6500 nM.
On the same count and under the same terms, the same measure for `NCC[C@H](O)C(=O)N[C@@H]1C[C@H](N)[C@@]2(CC[C@H](O)[C@H](O)CO2)[C@H](O)[C@H]1O`: 6900 nM.
Regarding `NCC[C@H](O)CN[C@@H]1C[C@H](N)[C@@]2(CC[C@H](O)[C@H](O)CO2)[C@H](O)[C@H]1O`, the 50% inhibitory concentration (IC50) at Bacterial 70S ribosome is greater than 600 µM. Besides, the EC50 in assay [1] was determined as 930 nM.
In the case of `N=C(N)NCCC[C@H](N)C(=O)NC[C@@H]1CC[C@@]2(O1)[C@H](O)[C@@H](O)[C@H](N)C[C@@H]2N`, at Bacterial 70S ribosome, the 50% inhibitory concentration (IC50) came out at 98 µM. This compound also returned an EC50 in assay [1] of 1500 nM.
In assay [1], `N[C@@H]1C[C@H](N)[C@@]2(CC[C@@H](O)[C@@H](O)CO2)[C@H](O)[C@H]1O` showed an EC50 of 141000 nM.
On to `NCCCC[C@H](N)CN[C@@H]1C[C@H](N)[C@@]2(C[C@H](O)[C@H](O)CO2)[C@H](O)[C@H]1O`, for which, at Bacterial 70S ribosome, the IC50 worked out at 540 µM. This compound showed an EC50 in assay [1] of 150 nM.
On to `NCCCC[C@H](N)CN[C@@H]1C[C@H](N)[C@@]2(CC[C@H](O)[C@H](O)CO2)[C@H](O)[C@H]1O`, for which the minimal inhibitory concentration (MIC) with Escherichia coli [2] is 118 µg/mL (≈ 313 µM); in the assay on Escherichia coli [3], greater than 118 µg/mL; in the assay with Escherichia coli [4] it was 118 µg/mL (≈ 313 µM); with Escherichia coli [5] (ATCC 25922, 18 h), 236 µg/mL (≈ 627 µM); in the assay with Pseudomonas aeruginosa (ATCC 27853, 18 h) it was greater than 118 µg/mL; in the assay on Staphylococcus aureus (ATCC 29213, 18 h), 3.8 µg/mL (≈ 10.1 µM). The IC50 on Bacterial 70S ribosome came to 100 µM. The midpoint of the response in assay [1], the EC50, lay at 90 nM.
For the compound `N[C@H](CN[C@@H]1C[C@H](N)[C@@]2(CC[C@@H](O)[C@@H](O)CO2)[C@H](O)[C@H]1O)Cc1ccc(O)cc1`, on Bacterial 70S ribosome, the half-maximal inhibitory concentration (IC50) is greater than 600 µM.
Turning to `N[C@@H](Cc1ccc(O)cc1)C(=O)N[C@@H]1C[C@H](N)[C@@]2(C[C@H](O)[C@H](O)CO2)[C@H](O)[C@H]1O`, the IC50 at Bacterial 70S ribosome is greater than 600 µM.
Consider `NCCCC[C@H](N)CN[C@@H]1C[C@H](N)[C@@]2(CC[C@@H](O)[C@@H](O)CO2)[C@H](O)[C@H]1O`, for which the MIC in the assay on Escherichia coli [2] is 118 µg/mL (≈ 313 µM); in the assay on Escherichia coli [3], greater than 118 µg/mL; in the assay with Escherichia coli [4], greater than 118 µg/mL; in the assay with Escherichia coli [5] (ATCC 25922, 18 h) it was 236 µg/mL (≈ 627 µM); in the assay on Pseudomonas aeruginosa (ATCC 27853, 18 h), greater than 118 µg/mL; in the assay on Staphylococcus aureus (ATCC 29213, 18 h), 14.7 µg/mL (≈ 39 µM). Also, the IC50 at Bacterial 70S ribosome was greater than 600 µM. The same compound came in with a half-maximal effective concentration (EC50) in assay [1] of 650 nM.
Turning to `NCC[C@H](O)C(=O)N[C@@H]1C[C@H](N)[C@@]2(CC[C@@H](O)[C@@H](O)CO2)[C@H](O)[C@H]1O`, the IC50 on Bacterial 70S ribosome was greater than 600 µM. This compound came in with a concentration for a half-maximal effect (EC50) in assay [1] of 390 nM.
Compound `N[C@@H]1C[C@H](N)[C@@]2(CC[C@H](O)[C@H](O)CO2)[C@H](O)[C@H]1O` yielded an EC50 in assay [1] of 74000 nM.
With `NC[C@@H]1O[C@H](O[C@H]2[C@@H](O)[C@H](O[C@@H]3[C@@H](O)[C@H](N)C[C@H](N)[C@H]3O[C@H]3O[C@H](CO)[C@@H](O)[C@H](O)[C@H]3N)O[C@@H]2CO)[C@H](N)[C@@H](O)[C@@H]1O` [PAROMOMYCIN], the MIC in the assay on Escherichia coli [2] is 113 µg/mL (≈ 184 µM); with Escherichia coli [3], 113 µg/mL (≈ 184 µM); in the assay with Escherichia coli [4] it was 113 µg/mL (≈ 184 µM); in the assay with Escherichia coli [5] (ATCC 25922, 18 h), 4 µg/mL (≈ 6.5 µM); in the assay with Pseudomonas aeruginosa (ATCC 27853, 18 h) it was 113 µg/mL (≈ 184 µM); in the assay with Staphylococcus aureus (ATCC 29213, 18 h), 4 µg/mL (≈ 6.5 µM).
Turning to `N[C@@H]1C[C@H](N)[C@@]2(CC[C@@H](CNC(=O)[C@@H](N)Cc3ccc(O)cc3)O2)[C@H](O)[C@H]1O`, at Bacterial 70S ribosome, the half-maximal inhibitory concentration (IC50) is greater than 600 µM.
Take `N[C@@H]1C[C@H](N)[C@@]2(CC[C@@H](CNC(=O)[C@@H](N)Cc3cnc[nH]3)O2)[C@H](O)[C@H]1O`: the IC50 on Bacterial 70S ribosome was determined as 172 µM. Further, a half-maximal effect in assay [1] (EC50) was put at 1600 nM.
With `N[C@@H]1C[C@H](N)[C@@]2(CC[C@@H](CNC(=O)[C@@H](N)Cc3c[nH]c4ccccc34)O2)[C@H](O)[C@H]1O`, the MIC is 32.5 µg/mL (≈ 77.8 µM) in the assay on Escherichia coli [2]; greater than 131 µg/mL with Escherichia coli [3]; 131 µg/mL (≈ 314 µM) in the assay on Escherichia coli [4]; 98 µg/mL (≈ 235 µM) in the assay with Escherichia coli [5] (ATCC 25922, 18 h); 65 µg/mL (≈ 156 µM) with Pseudomonas aeruginosa (ATCC 27853, 18 h); 8.4 µg/mL (≈ 20.1 µM) with Staphylococcus aureus (ATCC 29213, 18 h). Also, the 50% inhibitory concentration (IC50) at Bacterial 70S ribosome was determined as 149 µM.
As to `N[C@@H](Cc1ccc(O)cc1)C(=O)N[C@@H]1C[C@H](N)[C@@]2(CC[C@H](O)[C@H](O)CO2)[C@H](O)[C@H]1O`, the 50% inhibitory concentration (IC50) at Bacterial 70S ribosome amounted to 450 µM.
Regarding `NC[C@H]1O[C@H](O[C@H]2[C@H](O)[C@@H](O)[C@H](N)C[C@@H]2N)[C@H](N)[C@@H](O)[C@@H]1O` [NEAMINE], the MIC in the assay with Escherichia coli [2] worked out at 150 µg/mL (≈ 465 µM); in the assay with Escherichia coli [3], 150 µg/mL (≈ 465 µM); in the assay on Escherichia coli [4], 300 µg/mL (≈ 931 µM); in the assay on Escherichia coli [5] (ATCC 25922, 18 h), 14 µg/mL (≈ 43.4 µM); in the assay with Pseudomonas aeruginosa (ATCC 27853, 18 h), 73 µg/mL (≈ 226 µM); in the assay on Staphylococcus aureus (ATCC 29213, 18 h), 5 µg/mL (≈ 15.5 µM). In assay [1], this compound came in with an EC50 of 9500 nM.
With `N[C@@H]1C[C@H](N)[C@@]2(CC[C@@H](CNC(=O)[C@@H]3CCCN3)O2)[C@H](O)[C@H]1O`, on Bacterial 70S ribosome, the 50% inhibitory concentration (IC50) is 156 µM. The compound also had an EC50 in assay [1] of 680 nM.
